“And” between values parts separate entries of the source, which are not always exact repeats. Equal values may be shown once.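 The compound was tested at five concentrations on cells cultured in 96-well plates, with a 48-hour exposure period. Here, GI50 denotes the concentration required for 50% inhibition of growth. TGI marks complete inhibition of growth.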
Columns and labels:
Assay in all cases: NCI tumour cell line growth inhibition, 48 h
SF-268 CNS = tested on: SF-268 CNS
786-0 renal = tested on: 786-0 renal
U251 CNS = tested on: U251 CNS
SK-MEL-28 melanoma = tested on: SK-MEL-28 melanoma
SK-MEL-5 melanoma = tested on: SK-MEL-5 melanoma
SR leukemia = tested on: SR leukemia
HOP-92 NSCLC = tested on: HOP-92 NSCLC
CCRF-CEM leukemia = tested on: CCRF-CEM leukemia
MCF7 breast = tested on: MCF7 breast
SNB-19 CNS = tested on: SNB-19 CNS

Compound | GI50 (SF-268 CNS) [µM] | TGI (SF-268 CNS) | GI50 (786-0 renal) [µM] | TGI (786-0 renal) | GI50 (U251 CNS) [µM] | TGI (U251 CNS) | GI50 (SK-MEL-28 melanoma) [µM] | TGI (SK-MEL-28 melanoma) | GI50 (SK-MEL-5 melanoma) [µM] | TGI (SK-MEL-5 melanoma) | GI50 (SR leukemia) [µM] | TGI (SR leukemia) | GI50 (HOP-92 NSCLC) [µM] | TGI (HOP-92 NSCLC) [µM] | GI50 (CCRF-CEM leukemia) [µM] | TGI (CCRF-CEM leukemia) [µM] | GI50 (MCF7 breast) [µM] | TGI (MCF7 breast) | GI50 (SNB-19 CNS) [µM] | TGI (SNB-19 CNS)
NCCCn1c2c(c3ccc([N+](=O)[O-])cc3c1=O)C(=O)c1cc(Cl)ccc1-2 | < 0.01 | 0.391 µM | < 0.01 | 0.0369 µM | < 0.01 | 0.123 µM | 0.126 | 1.67 µM | < 0.0151 | 0.25 µM | < 0.01 | 0.0325 µM | 0.0542 | 0.544 | < 0.01 | 0.0104 | < 0.01 | 0.141 µM | < 0.01 | 0.227 µM
OCCCCC#Cc1ccccc1C#Cc1cccs1 | 15.8 | 32 µM | 14.3 | 27.9 µM | 13.9 | 27 µM | 15.8 | 31.1 µM | 13.3 | 26 µM | 1.85 | 14.5 µM | 14.1 | 28.7 | 2.29 | 11.5 | 1.88 | 29.1 µM | 16.1 | 31.1 µM
CN1CCN(c2ccc([N+](=O)[O-])c3no[n+]([O-])c23)CC1 | 0.198 | 0.68 µM and 1.12 µM | 0.298 | 0.923 µM and 1.15 µM | 0.189 | 1.41 µM and 0.618 µM | 0.991 | 5.59 µM and 2.67 µM | 1.04 | 2.91 µM and 2.51 µM | 0.0201 | 0.0274 µM and 0.0936 µM | 0.188 | 1.2 | – | 0.582 | 0.141 | 1.79 µM and 0.985 µM | – | 4.82 µM and 2.24 µM
CCOC(=O)c1cn2ncnc(Oc3ccc(NC(=O)NCCN(CC)CC)c(Cl)c3)c2c1C | 2.28 | 6.58 µM | 1.89 | 3.75 µM | 2.38 | 6.24 µM | 1.69 | 3.15 µM | 1.81 | 3.3 µM | 1.96 | 5.15 µM | 1.76 | 6.19 | 2.33 | 6.73 | 2.14 | 5.21 µM | 10.5 | 28.1 µM
C=C(C)C1CCC2(CO)C(O)CC3(C)C(CCC4C5(C)CCC(O)C(C)(C)C5CCC43C)C12 (stereo not given) | – | > 100 µM | – | > 100 µM | – | 9.96 µM | – | 32.5 µM | – | 21.3 µM | – | > 100 µM | – | 25.2 | – | > 100 | – | 43.6 µM | – | 84.1 µM
C[C@@H]1CCC2[C@@H](C)[C@H](OC(=O)CCC(=O)NCCNC(=O)Cc3cc(=O)oc4cc(N(C)C)ccc34)O[C@@H]3O[C@]4(C)CC[C@@H]1C23OO4 (stereo not given in full) | 5.25 | > 65.2 µM | 4.24 | 65.2 µM | 1.33 | 19.1 µM | 17.4 | > 100 µM | 1.48 | > 39.3 µM | 0.561 | 6.83 µM | 2.6 | 16.9 | 1.57 | > 75.7 | 2.92 | 28.2 µM | 10.7 | > 100 µM
c1ccc([P+](CCC[P+](c2ccccc2)(c2ccccc2)c2ccccc2)(c2ccccc2)c2ccccc2)cc1 | 7.71 | > 100 µM | – | > 100 µM | – | > 100 µM | 11.2 | > 100 µM | 6.8 | 74.1 µM and 38.7 µM | 4.82 | > 100 µM | – | 82.2 | 7.26 | > 100 | 6.79 | > 100 µM | 8.95 | > 100 µM
Cc1[nH]ccc2cc3nc4ccccc4c3cc12 | 2.97 | 14.2 µM | 3.33 | 13.8 µM | 2.82 | 12.4 µM | 10.7 | 23.9 µM | 3.28 | 13.6 µM | 1.13 | 3.53 µM | 1.3 | 5.64 | 1.5 | 10 | 1.34 | 5.63 µM | 5.65 | 19.6 µM

Source: PubChem BioAssay (NCI)
